Experimental data published in US11274083B2, “Substituted thiophenyl uracils, salts thereof and the use thereof as herbicidal agents” (Syngenta Crop Protection AG, priority 2017, dated 2022).

Legend:
Format in all cases: in vivo
[1] = tested on: Abutilon theophrasti; test: Herbicidal action post-emergence, greenhouse pot test; details: application rate 80 g/ha
How it was run: (§1)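 Visual efficacy scoring (0% like untreated, 100% plant death) about 3 weeks post-treatment. Application, at ≤80 g/ha, was a post-emergence spray of wettable-powder or emulsion-concentrate formulations in water with 0.5% additive at 600 L/ha onto one-leaf-stage plants grown 2–3 weeks from seed in sandy loam.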

[2] = tested on: Alopecurus myosuroides; test: as above; details: application rate 80 g/ha, scored visually after about 3 weeks vs untreated controls
How it was run: as §1

[3] = tested on: Amaranthus retroflexus; test: as above; details: application rate 80 g/ha
How it was run: as §1

[4] = tested on: Avena fatua; test: as above; details: application rate 80 g/ha
How it was run: as §1

[5] = tested on: Echinochloa crus-galli; test: as above; details: application rate 80 g/ha
How it was run: as §1

[6] = tested on: Lolium multiflorum; test: as above; details: application rate 80 g/ha
How it was run: as §1

[7] = tested on: Matricaria inodora; test: as above; details: application rate 80 g/ha
How it was run: as §1

[8] = tested on: Pharbitis purpurea; test: as above; details: application rate 80 g/ha
How it was run: as §1

[9] = tested on: Polygonum convolvulus; test: as above; details: application rate 80 g/ha
How it was run: as §1

[10] = tested on: Setaria viridis; test: as above; details: application rate 80 g/ha
How it was run: as §1

[11] = tested on: Stellaria media; test: as above; details: application rate 80 g/ha
How it was run: as §1

[12] = tested on: Veronica persica; test: as above; details: application rate 80 g/ha
How it was run: as §1

[13] = tested on: Viola tricolor; test: as above; details: application rate 80 g/ha
How it was run: as §1

[14] = tested on: Oryza sativa; test: Crop compatibility post-emergence, greenhouse pot test; details: application rate 20 g/ha
How it was run: (§2)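 Visual % damage versus untreated plants, read about 3 weeks after treatment (100% = plants died, 0% = as control). Crops were sown in sandy loam pots in a greenhouse and sprayed at one-leaf stage with WP/EC compound in water with 0.5% additive, 600 L/ha.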

[15] = tested on: Triticum aestivum; test: as above
How it was run: as §2

[16] = tested on: Abutilon theophrasti; test: Herbicidal action pre-emergence, greenhouse pot test; details: application rate 320 g/ha
How it was run: (§3)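 Pre-emergence soil-surface treatment at application rates of 320 g/ha or below, using WP or EC formulations in water (600 L/ha) plus 0.5% additive over freshly sown, soil-covered seeds. After roughly 3 weeks' greenhouse growth, damage rated visually against untreated plants, 0% meaning like control.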

[17] = tested on: Alopecurus myosuroides; test: as above
How it was run: as §3

[18] = tested on: Amaranthus retroflexus; test: as above
How it was run: as §3

[19] = tested on: Cyperus esculentus; test: as above; details: application rate 320 g/ha
How it was run: as §3

[20] = tested on: Echinochloa crus-galli; test: as above; details: application rate 320 g/ha
How it was run: as §3

[21] = tested on: Lolium multiflorum; test: as above; details: application rate 80 g/ha, scored visually after about 3 weeks vs untreated controls
How it was run: as §3

[22] = tested on: Pharbitis purpurea; test: as above; details: application rate 320 g/ha
How it was run: as §3

[23] = tested on: Polygonum convolvulus; test: as above; details: application rate 320 g/ha
How it was run: as §3

[24] = tested on: Setaria viridis; test: as above; details: application rate 320 g/ha
How it was run: as §3

[25] = tested on: Stellaria media; test: as above; details: application rate 320 g/ha
How it was run: as §3

[26] = tested on: Veronica persica; test: as above; details: application rate 320 g/ha
How it was run: as §3

[27] = tested on: Viola tricolor; test: as above; details: application rate 320 g/ha
How it was run: as §3

[28] = tested on: Matricaria inodora; test: as above; details: application rate 320 g/ha
[29] = tested on: Lolium rigidum; test: Herbicidal action post-emergence, greenhouse pot test; details: application rate 80 g/ha
How it was run: as §1

[30] = tested on: Zea mays; test: Crop compatibility post-emergence, greenhouse pot test; details: application rate 20 g/ha
How it was run: as §2

[31] = tested on: Hordeum murinum; test: Herbicidal action pre-emergence, greenhouse pot test; details: application rate 320 g/ha
How it was run: as §3

[32] = tested on: Lolium rigidum; test: as above; details: application rate 320 g/ha
How it was run: as §3

[33] = tested on: Digitaria sanguinalis; test: Herbicidal action post-emergence, greenhouse pot test; details: application rate 80 g/ha
[34] = tested on: Digitaria sanguinalis; test: Herbicidal action pre-emergence, greenhouse pot test; details: application rate 320 g/ha
Source text: Seeds of mono- and dicotyledonous weeds and crop plants were laid out in plastic or organic plant pots and covered with soil. The compounds of the invention formulated in the form of wettable powders (WP) or as emulsion concentrates (EC) were then applied to the surface of the covering soil as an aqueous suspension or emulsion with addition of 0.5% additive at a water application rate equivalent to 600 L/ha. After the treatment, the pots were placed in a greenhouse and kept under good growth conditions for the test plants. After about 3 weeks, the efficacy of the preparations was scored visually as a percentage by comparison with untreated controls. For example, 100% efficacy=plants have died. 0% efficacy=like control plants.

Row | Structure (SMILES) | Abutilon theophrasti (Efficacy in %) [1] | Alopecurus myosuroides (Efficacy in %) [2] | Amaranthus retroflexus (Efficacy in %) [3] | Avena fatua (Efficacy in %) [4] | Echinochloa crus-galli (Efficacy in %) [5] | Matricaria inodora (Efficacy in %) [7] | Pharbitis purpurea (Efficacy in %) [8] | Polygonum convolvulus (Efficacy in %) [9] | Setaria viridis (Efficacy in %) [10] | Stellaria media (Efficacy in %) [11] | Veronica persica (Efficacy in %) [12] | Viola tricolor (Efficacy in %) [13] | Oryza sativa (Efficacy in %) [14] | Abutilon theophrasti (Efficacy in %) [16] | Echinochloa crus-galli (Efficacy in %) [20] | Pharbitis purpurea (Efficacy in %) [22] | Polygonum convolvulus (Efficacy in %) [23] | Setaria viridis (Efficacy in %) [24] | Stellaria media (Efficacy in %) [25] | Veronica persica (Efficacy in %) [26] | other results
1 | CCOC(=O)CCOC(=O)C(C)Sc1cc(-n2c(=O)cc(C(F)(F)F)n(C)c2=O)c(F)cc1Cl (centres unmarked) [I.1-3] | 100% | 100% | 100% | 80% | 100% | 100% | 100% | 100% | 100% | 100% | 100% | 100% | 20% | 100% | 100% | 100% | 100% | 100% | 100% | 100% | Lolium multiflorum (Efficacy in %) [6]: 100%; Triticum aestivum (Efficacy in %) ([15]; application rate 20 g/ha): 10%; Alopecurus myosuroides (Efficacy in %) ([17]; application rate 80 g/ha): 90%; Amaranthus retroflexus (Efficacy in %) ([18]; application rate 80 g/ha): 100%; Cyperus esculentus (Efficacy in %) [19]: 100%; Lolium multiflorum (Efficacy in %) [21]: 100%; Viola tricolor (Efficacy in %) [27]: 100%; Matricaria inodora (Efficacy in %) [28]: 100%
2 | COC(=O)C(C)(C)COC(=O)C(C)Sc1cc(-n2c(=O)cc(C(F)(F)F)n(C)c2=O)c(F)cc1Cl (centres unmarked) [I.1-32] | 100% | 80% | 100% | 80% | 100% | 100% | 100% | 100% | 100% | 100% | 100% | 100% | 20% | 100% | 100% | 100% | 100% | 100% | 100% | 100% | Lolium rigidum (Efficacy in %) [29]: 100%; Triticum aestivum (Efficacy in %) ([15]; application rate 5 g/ha): 20%; Zea mays (Efficacy in %) [30]: 20%; Alopecurus myosuroides (Efficacy in %) ([17]; application rate 320 g/ha): 90%; Amaranthus retroflexus (Efficacy in %) ([18]; application rate 320 g/ha): 100%; Hordeum murinum (Efficacy in %) [31]: 90%; Lolium rigidum (Efficacy in %) [32]: 90%; Viola tricolor (Efficacy in %) [27]: 100%; Matricaria inodora (Efficacy in %) [28]: 100%; Digitaria sanguinalis (Efficacy in %) [33]: 100%; Digitaria sanguinalis (Efficacy in %) [34]: 100%
